According to ChEMBL document CHEMBL1144835, “Bioactive metabolites from the South African marine mollusk Trimusculus costatus” (J Nat Prod, 2008):

assay: Cytotoxicity against human WHCO1 cells after 24 hrs by MTT assay; format: functional, cell-based; settings: WHCO1, 24 h

Row | SMILES | IC50
1 | CC(=O)O[C@H]1CC(C)(C)[C@@H]2[C@H](OC(C)=O)[C@@H](OC(C)=O)C(C)=C(CC/C(C)=C/CO)[C@@]2(C)C1 | 24 µM
2 | CC(=O)OC/C=C(\C)CCC1=C(C)[C@H](OC(C)=O)[C@@H](OC(C)=O)[C@H]2C(C)(C)CCC[C@]12C | 84 µM
3 | CC(=O)O[C@@H]1[C@@H](OC(C)=O)C(C)=C(CC/C(C)=C/CO)[C@@]2(C)CCCC(C)(C)[C@H]12 | 25 µM
4 | CC(C)CCC[C@@H](C)[C@H]1CC[C@@H](C2=CC(=O)C3=C[C@H](O)CC[C@]3(C)C2=O)[C@]1(C)CCO | 3 µM
